From patent publication US8580762B2, “Substituted purine and 7-deazapurine compounds” (Epizyme, Inc., priority 2010, dated 2013)
Like-named read-outs stand apart in the source and are kept apart here.

Biological target: DOT1L(1-416) (Homo sapiens, UniProt Q8TEK3)
Experiment: Determination of IC50: DOT1L(1-416) methyltransferase assay, 3H-SAM, oligonucleosome substrate, Flashplate
Assay type: biochemical
Details: read-out: DOT1L IC50
Experimental: Determination of IC50. Test compounds were serially diluted 3 fold in DMSO for 10 points and 1 μl was plated in a 384 well microtiter plate. […] 10 μl per well of substrate mix (same assay buffer with 200 nM S-[methyl-^3H]-adenosyl-L methionine, 600 nM of unlabeled […], and 20 nM oligonueleosome) was added to initiate the reaction. Reaction was incubated for 120 minutes at room temperature and quenched with 10 μl per well of 100 μM S-methyl-adenosyl-L methionine. For detection, substrate from 50 μl of reaction was immobilized on a 384 well Streptavidin coated Flashplate (Perkin Elmer) (also coated with 0.2% polyethyleneimine) and read on a Top Count scintillation counter (Perkin Elmer).

Chain of DOT1L(1-416) (Q8TEK3 1-416): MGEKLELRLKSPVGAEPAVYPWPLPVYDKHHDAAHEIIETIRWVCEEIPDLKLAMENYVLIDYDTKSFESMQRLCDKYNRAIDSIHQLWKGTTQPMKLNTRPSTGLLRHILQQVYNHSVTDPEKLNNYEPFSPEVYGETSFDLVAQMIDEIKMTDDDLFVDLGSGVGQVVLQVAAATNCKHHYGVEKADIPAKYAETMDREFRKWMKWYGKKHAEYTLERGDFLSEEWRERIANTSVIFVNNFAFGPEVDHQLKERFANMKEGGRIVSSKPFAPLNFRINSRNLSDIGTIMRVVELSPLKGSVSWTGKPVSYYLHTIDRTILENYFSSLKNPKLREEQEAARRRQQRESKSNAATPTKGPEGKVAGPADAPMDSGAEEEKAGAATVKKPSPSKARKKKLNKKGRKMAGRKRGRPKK

SMILES	IC50 (class symbols) [nM]	IC50 [nM]
CN(C[C@@H]1C[C@@H](O)[C@H](n2ccc3c(N)ncnc32)C1)C1CC(CCc2nc3cc(Cl)c(C(F)(F)F)cc3[nH]2)C1 (stereo partly drawn) [Compound 17, (1R,2R,4S)-2-(4-amino-7H-pyrrolo[2,3-d]pyrimidin-7-yl)-4-(((3-(2-(5-chloro-6-(trifluoromethyl)-1H-benzo[d]imidazol-2-yl)ethyl)cyclobutyl) (methyl)amino)methyl) cyclopentanol]	100 to 1000	–
CN(C[C@H]1C[C@@H](n2ccc3c(N)ncnc32)[C@H](O)[C@@H]1O)[C@H]1C[C@H](CCc2nc3cc(Br)ccc3[nH]2)C1 [Compound 55, (1R,2S,3R,5R)-3-(4-amino-7H-pyrrolo[2,3-d]pyrimidin-7-yl)-5-((((1s,3R)-3-(2-(5-bromo-1H-benzo[d]imidazol-2-yl)ethyl)cyclobutyl)(methyl)amino)methyl)cyclopentane-1,2-diol]	< 100	–
CC(C)(C)c1ccc2[nH]c(CC[C@H]3C[C@H](N(C[C@H]4C[C@@H](n5ccc6c(N)ncnc65)[C@H](O)[C@@H]4O)C4CCC4)C3)nc2c1 [Compound 51, (1R,2S,3R,5R)-3-(4-amino-7H-pyrrolo[2,3-d]pyrimidin-7-yl)-5-((((1s,3R)-3-(2-(5-(tert-butyl)-1H-benzo[d]imidazol-2-yl)ethyl)cyclobutyl)(cyclobutyl)amino)methyl)cyclopentane-1,2-diol]	< 100	–
CC(C)(C)c1ccc2[nH]c(CC[C@H]3C[C@H](N(CC4CC4)C[C@H]4C[C@@H](n5ccc6c(N)ncnc65)[C@H](O)[C@@H]4O)C3)nc2c1 [Compound 54, (1R,2S,3R,5R)-3-(4-amino-7H-pyrrolo[2,3-d]pyrimidin-7-yl)-5-((((1s,3R)-3-(2-(5-(tert-butyl)-1H-benzo[d]imidazol-2-yl)ethyl)cyclobutyl)(cyclopropylmethyl)amino)methyl)cyclopentane-1,2-diol]	< 100	–
CC(C)N(C[C@H]1O[C@@H](n2cnc3c(N)ncnc32)[C@H](O)[C@@H]1O)[C@H]1C[C@@H](CCc2nc3cc(Cl)c(C(F)(F)F)cc3[nH]2)C1 [Compound 5]	< 100	0.59
CC(C)(C)c1ccc2[nH]c(CCC3CC(N(CC4CC4)C[C@H]4C[C@@H](n5ccc6c(N)ncnc65)[C@H](O)[C@@H]4O)C3)nc2c1 (stereo partly drawn) [Compound 44, (1R,2S,3R,5R)-3-(4-amino-7H-pyrrolo[2,3-d]pyrimidin-7-yl)-5-(((3-(2-(5-(tert-butyl)-1H-benzo[d]imidazol-2-yl)ethyl)cyclobutyl)(cyclopropylmethyl)amino)methyl)cyclopentane-1,2-diol]	< 100	–
COCC(C)(C)c1ccc2[nH]c(CC[C@H]3C[C@@H](N(C[C@H]4O[C@@H](n5cnc6c(N)ncnc65)[C@H](O)[C@@H]4O)C(C)C)C3)nc2c1 [Compound 122, (2R,3R,4S,5R)-2-(6-amino-9H-purin-9-yl)-5-((isopropyl((1r,3S)-3-(2-(5-(1-methoxy-2-methylpropan-2-yl)-1H-benzo[d]imidazol-2-yl)ethyl)cyclobutyl)amino)methyl) tetrahydrofuran-3,4-diol]	< 100	–
CN(C[C@H]1C[C@@H](n2ccc3c(N)ncnc32)[C@H](O)[C@@H]1O)[C@H]1C[C@@H](CCc2nc3cc(Br)ccc3[nH]2)C1 [Compound 47, (1R,2S,3R,5R)-3-(4-amino-7H-pyrrolo[2,3-d]pyrimidin-7-yl)-5-((((1r,38)-3-(2-(5-bromo-1H-benzo[d]imidazol-2-yl)ethyl)cyclobutyl)(methyl)amino)methyl)cyclopentane-1,2-diol]	< 100	–
CN(C[C@H]1O[C@@H](n2ccc3c(N)ncnc32)[C@H](O)[C@@H]1O)C1CC(Cc2nc3cc(C(C)(C)C)ccc3[nH]2)C1 (stereo partly drawn) [Compound 6, (2R,3R,4S,5R)-2-(4-amino-7H-pyrrolo[2,3-d]pyrimidin-7-yl)-5-(((3-((5-(tert-butyl)-1H-benzo[d]imidazol-2-yl)methyl)cyclobutyl)(methyl)amino)methyl)tetrahydrofuran-3,4-diol]	< 100	–

The next lines start with results.

IC50 (class symbols) [nM]	SMILES	IC50 [nM]
100 to 1000	CC(C)(C)c1ccc2[nH]c(CCC3CC(N(C[C@H]4O[C@@H](n5cnc6c(N)ncnc65)[C@H](O)[C@@H]4O)CC(F)(F)F)C3)nc2c1 (stereo partly drawn) [Compound 82, (2R,3R,45,5R)-2-(6-amino-9H-purin-9-yl)-5-(((3-(2-(5-(tert-butyl)-1H-benzo[d]imidazol-2-yl)ethyl)cyclobutyl) (2,2,2-trifluoroethyl)amino)methyl)tetrahydrofuran-3,4-diol]	–
1000 to 10000	CC(C)N(C[C@@H]1C[C@@H](O)[C@H](n2ccc3c(N)ncnc32)C1)C1CC(CCc2nc3cc(Cl)c(C(F)(F)F)cc3[nH]2)C1 (stereo partly drawn) [Compound 84, (1R,2R,4S)-2-(4-amino-7H-pyrrolo[2,3-d]pyrimidin-7-yl)-4-(((3-(2-(5-chloro-6-(trifluoromethyl)-1H-benzo[d]imidazol-2-yl)ethyl)cyclobutyl) (isopropyl)amino)methyl)cyclopentanol]	–
< 100	CC(C)N(C[C@H]1O[C@@H](n2cnc3c(N)ncnc32)[C@H](O)[C@@H]1O)[C@H]1C[C@H](CCc2nc3cc(C(C)(C)C#N)ccc3[nH]2)C1 [Compound 129, 2-(2-(2-((1R,3s)-3-((((2R,3S,4R,5R)-5-(6-amino-9H-purin-9-yl)-3,4-dihydroxytetrahydro-furan-2-yl)methyl)(isopropyl)amino)cyclobutyl)ethyl)-1H-benzo[d]imidazol-5-yl)-2-methylpropanenitrile]	–
100 to 1000	CN(C[C@H]1C[C@@H](n2ccc3c(N)ncnc32)[C@H](O)[C@@H]1O)C1CC(CCc2nc3cc(C4COC4)ccc3[nH]2)C1 (stereo partly drawn) [Compound 62, (1R,2S,3R,5R)-3-(4-amino-7H-pyrrolo[2,3-d]pyrimidin-7-yl)-5-((methyl(3-(2-(5-(oxetan-3-yl)-1H-benzo[d]imidazol-2-yl)ethyl)cyclobutyl)amino)methyl)cyclopentane-1,2-diol]	–
< 100	CCN(C[C@H]1O[C@@H](n2ccc3c(N)ncnc32)[C@H](O)[C@@H]1O)[C@H]1C[C@@H](CCc2nc3cc(C(C)(C)C)ccc3[nH]2)C1 [Compound 89, (2R,3R,4S,5R)-2-(4-amino-7H-pyrrolo[2,3-d]pyrimidin-7-yl)-5-((((1r,3S)-3-(2-(5-(tert-butyl)-1H-benzo[d]imidazol-2-yl)ethyl)cyclobutyl) (ethyl)amino)methyl) tetrahydrofuran-3,4-diol]	–
1000 to 10000	CC(C)N(C[C@@H]1C[C@@H](O)[C@H](n2ccc3c(N)ncnc32)C1)[C@H]1C[C@@H](CCc2nc3cc(Cl)c(C(F)(F)F)cc3[nH]2)C1 [Compound 105, (1R,2R,4S)-2-(4-amino-7H-pyrrolo[2,3-d]pyrimidin-7-yl)-4-((((1r,3R)-3-(2-(5-chloro-6-(trifluoromethyl)-1H-benzo[d]imidazol-2-yl)ethyl)cyclobutyl) (isopropyl)amino)methyl)cyclopentanol]	–
100 to 1000	CC(C)(C)c1ccc2[nH]c(CCC3CC(N(C[C@H]4C[C@@H](n5ccc6c(N)ncnc65)[C@H](O)[C@@H]4O)CC(F)(F)F)C3)nc2c1 (stereo partly drawn) [Compound 66, (1R,2S,3R,5R)-3-(4-amino-7H-pyrrolo[2,3-d]pyrimidin-7-yl)-5-(((3-(2-(5-(tert-butyl)-1H-benzo[d]imidazol-2-yl)ethyl)cyclobutyl) (2,2,2-trifluoroethyl)amino)methyl)cyclopentane-1,2-diol]	–
